Results from patent US20250269093A1, “METHODS OF ENHANCING ANTIMICROBIAL EFFICACY OF LOCAL ANESTHETICS” (Chinook Contract Research Inc., priority 2023, published 2025).
Structures can show the parent of a compound that is named as a salt. Where two headings read alike, the source gives them in different places.

What was measured:
[1] = system: S. epidermidis ATCC 35984; assay: Broth microdilution assay (MIC); format: cell-based, Staphylococcus epidermidis; settings: for MIC: broth microdilution, 16-24 hours at 37° C.; for MIC +1 mg/mL LD: titrated in a constant concentration of 1 mg/mL lidocaine base
Protocol: (§1) Broth Microdilution Assay: A stock solution of each test article was serially diluted in a 96-well plate for a final volume of 0.1 mL per well. […] Turbidity was assessed after 16-24 hours at 37° C. (100 rpm).
(§2) Incubated at 37° C. at 200 rpm for approximately 2 hours to fully dissolve the powder. Filter sterilized.
(§3) Prepared a 2× stock of lidocaine HCl by dissolving 500 mg per 10 mL OSB (=50 mg/mL). Filter sterilized.
(§4) Serially diluted (2-fold series) the contents of rows B to G: Removed 100 μL from row B to row C and mixed by pipetting up and down at least 3 times. Discarded the tips.
(§5) For bacteria: Mixed 10 μL O/N with 990 μL OSB for ˜10^7 CFU/mL, then mixed 100 μL of the ˜10^7 CFU/mL culture with 9.90 mL BGM for ˜10^5 CFU/mL. • b. For yeast: Mixed 100 μL O/N with 9.90 mL BGM for ˜10^5 CFU/mL.
(§6) Immediately poured the ˜10^5 CFU/mL inoculum into a sterile reagent reservoir and used a multichannel pipettor to aliquot 100 μL into each well of the 96-well plates, excluding row H. Mixed by pipetting up and down at least 3 times. Added uninoculated BGM to row H.
(§7) Sealed the plates in sandwich bags and incubated at 37±1° C. for 16-24 hours (100 rpm).
(§8) Visually scored for growth, which appeared as turbidity or as a deposit of cells at the bottom of a well.
(§9) Determined the MIC (minimum inhibitory concentration) for each organism. The MIC was defined as the minimum concentration that inhibited growth of the organism.
(§10) MIC determination from Broth Microdilution: MIC results were determined following the overnight incubation of the broth microdilution plates. Ensured that the SC wells were free of growth and that the GC wells were positive for growth. To determine the minimum inhibitory concentration (MIC) values, checked for turbidity in the wells of the challenge plate and scored. The MIC was defined as the minimum concentration that inhibited visible growth of the organism.

[2] = system: E. faecalis ATCC 51575; assay: Broth microdilution assay (MIC); format: cell-based, Enterococcus faecalis; settings: for MIC: broth microdilution, 16-24 hours at 37° C.; for MIC +1 mg/mL LD: titrated in a constant concentration of 1 mg/mL lidocaine base
Protocol: as §1, §2, §3, §4, §5, §6, §7, §8, §9, §10

[3] = system: C. albicans ATCC 10231; assay: Broth microdilution assay (MIC); format: cell-based, Candida albicans; settings: for MIC: broth microdilution, 16-24 hours at 37° C.; for MIC +1 mg/mL LD: titrated in a constant concentration of 1 mg/mL lidocaine base
Protocol: as §1, §2, §3, §4, §5, §6, §7, §8, §9, §10

[4] = system: P. aeruginosa ATCC 15442; assay: Broth microdilution assay (MIC); format: cell-based, Pseudomonas aeruginosa; settings: for MIC: broth microdilution, 16-24 hours at 37° C.; for MIC +1 mg/mL LD: titrated in a constant concentration of 1 mg/mL lidocaine base
Protocol: as §1, §2, §3, §4, §5, §6, §7, §8, §9, §10

[5] = system: P. mirabilis ATCC 29906; assay: Broth microdilution assay (MIC); format: cell-based, Proteus mirabilis; settings: for MIC: broth microdilution, 16-24 hours at 37° C.; for MIC +1 mg/mL LD: titrated in a constant concentration of 1 mg/mL lidocaine base
Protocol: as §1, §2, §3, §4, §5, §6, §7, §8, §9, §10

[6] = system: E. coli ATCC 25922; assay: Broth microdilution assay (MIC); format: cell-based, Escherichia coli; settings: for MIC: broth microdilution, 16-24 hours at 37° C.; for MIC +1 mg/mL LD: titrated in a constant concentration of 1 mg/mL lidocaine base
Protocol: as §1, §2, §3, §4, §5, §6, §7, §8, §9, §10

[7] = system: S. aureus ATCC 29213; assay: Broth microdilution assay (MIC); format: cell-based, Staphylococcus aureus; settings: for MIC: broth microdilution, 16-24 hours at 37° C.; for MIC +1 mg/mL LD: titrated in a constant concentration of 1 mg/mL lidocaine base
Protocol: as §1, §2, §3, §4, §5, §6, §7, §8, §9, §10

[8] = system: all seven tested organisms; assay: Broth microdilution assay (MIC), summary over the panel; format: cell-based; settings: for MIC (plus lidocaine base): all seven organisms, constant concentration of 1 mg/mL lidocaine base
Protocol: as §1
Prepared a 2× stock solution of lidocaine by dissolving 20 mg of free-base lidocaine per 10 mL of OSB (=2 mg/mL). Incubated at 37° C. at 200 rpm for approximately 2 hours to fully dissolve the powder. Filter sterilized.
as §3
Prepared 2× stock (=8% v/v) of DMSO or NMP by mixing 800 μL of either with 9.2 mL of OSB or with OSB plus 2 mg/mL lidocaine base.
Aliquoted 200 μL of the 2× stock of LD-HCl, LD base, DMSO, NMP, DMSO+LD base, or NMP+LD base into wells B1-2, B3-4, B5-6, B7-8, B9-10, or B11-12, respectively.
as §4, §5, §6, §7, §8, §9
MIC determination from Broth Microdilution: MIC results were determined following the overnight incubation of the broth microdilution plates. […] To determine the minimum inhibitory concentration (MIC) values, checked for turbidity in the wells of the challenge plate and scored. […]

[9] = system: E. coli ATCC 25922; settings: cited from earlier work
[10] = system: P. aeruginosa ATCC 27853; settings: cited from earlier work
[11] = system: S. aureus ATCC 29213; settings: cited from earlier work

Row | SMILES | MIC [1] | MIC +1 mg/mL LD [1] | MIC [2] | MIC +1 mg/mL LD [2] | MIC [3] | MIC +1 mg/mL LD [3] | MIC [4] | MIC +1 mg/mL LD [4] | MIC [5] | MIC +1 mg/mL LD [5] | MIC [6] | MIC +1 mg/mL LD [6] | MIC [7] | MIC +1 mg/mL LD [7] | MIC (plus lidocaine base) [8] | other results
1 | C[S+](C)[O-] [DMSO, Dimethyl Sulfoxide] | >4.00 % v/v | >4.00 % v/v | >4.00 % v/v | >4.00 % v/v | >4.00 % v/v | >4.00 % v/v | >4.00 % v/v | >4.00 % v/v | >4.00 % v/v | >4.00 % v/v | >4.00 % v/v | >4.00 % v/v | >4.00 % v/v | >4.00 % v/v | > 4 % v/v | –
2 | CCN(CC)CC(=O)Nc1c(C)cccc1C [LD-B, Free base lidocaine] | >1.00 mg/mL | – | >1.00 mg/mL | – | >1.00 mg/mL | – | >1.00 mg/mL | – | >1.00 mg/mL | – | >1.00 mg/mL | – | >1.00 mg/mL | – | – | –
3 | CCN(CC)CC(=O)Nc1c(C)cccc1C [LD-HCl, Lidocaine hydrochloride] | – | – | – | – | – | – | – | – | – | – | – | – | – | – | – | MIC ([1]; Staphylococcus epidermidis, ATCC35984, read-out: MIC): 25 mg/mL; MIC (published literature) [9]: 5.00 mg/mL; MIC ([2]; Enterococcus faecalis, ATCC51575, read-out: MIC): 25 mg/mL; MIC ([3]; Candida albicans, ATCC10231, read-out: MIC): 12.5 mg/mL; MIC ([4]; Pseudomonas aeruginosa, ATCC15442, read-out: MIC): 25 mg/mL; MIC ([5]; Proteus mirabilis, ATCC29906, read-out: MIC): 12.5 mg/mL; MIC (published literature) [10]: > 20.0 mg/mL; MIC ([6]; Escherichia coli, ATCC25922, read-out: MIC): 6.25 mg/mL; MIC (published literature) [11]: 20.0 mg/mL; MIC ([7]; Staphylococcus aureus, ATCC29213, read-out: MIC): 12.5 mg/mL
4 | CN1CCCC1=O [NMP, n-methyl-2-pyrrolidone] | 4.00 % v/v | 4.00 % v/v | 4.00 % v/v | 4.00 % v/v | 4.00 % v/v | 4.00 % v/v | 4.00 % v/v | 4.00 % v/v | 4.00 % v/v | 4.00 % v/v | 4.00 % v/v | 4.00 % v/v | 4.00 % v/v | 4.00 % v/v | 4 % v/v | MIC ([8]; for all seven tested organisms, maximum challenge concentration 4% v/v): 4 % v/v
